In patent US11555212B2, “Process for the production of sulfated phenolic compounds using modified Escerichia coli” (CysBio ApS, priority 2016, dated 2023):

What was measured:
[1] = target: T1, SULT1A1 from Rattus norvegicus (Rattus norvegicus, UniProt P17988); assay: Percent reduction of phenolic compounds by E. coli KRX expressing a sulfotransferase; assay type: cell-based; details: M9, 0.1 mM IPTG, 0.1% rhamnose, compound 50 μM, overnight 37° C.
T1 construct: 1, 3, 4, 5, and 6 were cloned amplified from liver tissue cDNA; expressed in transfected cells
T1 sequence (P17988 whole entry): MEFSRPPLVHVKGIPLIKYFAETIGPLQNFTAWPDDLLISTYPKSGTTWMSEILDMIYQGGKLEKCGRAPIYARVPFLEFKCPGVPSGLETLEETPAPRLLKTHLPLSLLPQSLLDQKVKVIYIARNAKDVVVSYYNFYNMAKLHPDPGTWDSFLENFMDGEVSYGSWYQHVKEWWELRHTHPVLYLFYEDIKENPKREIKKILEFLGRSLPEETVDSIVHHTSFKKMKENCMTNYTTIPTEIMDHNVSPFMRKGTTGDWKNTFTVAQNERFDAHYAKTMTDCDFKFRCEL
Experimental: M9 medium containing 0.2% glucose, 0.1 mM IPTG, 0.1% rhamnose, and 100 μg/mL ampicillin was prepared.
The strains described above were grown in 2×YT medium with 100 μg/mL ampicillin overnight before their were used to inoculate the media by 50-fold dilution. The cultures were grown overnight with vigorous shaking at 37° C. […] The compounds were detected by UV absorbance except for 4-methylbelliferone, which was measured by fluorescence.

[2] = tested on: SULT1E1 from chicken (Gallus gallus domesticus); assay: Percent reduction in concentration of phenolic compounds by E. coli expressing a sulfotransferase, compared to control strain; assay type: cell-based; details: E. coli BL21(DE3)pLysS expressing SULT1E1 chicken, compared to the control strain; M9, 1 mM IPTG, single substrate at start concentration of Table 14; overnight 37° C.
[3] = target: T2, SULT1A1 from rat (Rattus norvegicus) (Rattus norvegicus, UniProt P17988); assay: as above; assay type: cell-based; details: compared to the control strain, M9, 1 mM IPTG, single substrate at start concentration of Table 14, overnight 37° C.; for Percent reduction in concentration, SULT1A1 + CysDNCQ: E. coli BL21(DE3)pLysS expressing SULT1A1 rat + CysDNCQ; for Percent reduction in concentration, SULT1A1: E. coli BL21(DE3)pLysS expressing SULT1A1 rat
T2 construct: 1, 3, 4, 5, and 6 were cloned amplified from liver tissue cDNA; expressed in transfected cells
T2 sequence (P17988 whole entry): as above
Experimental: (§1) The concentration of p-courmaric acid (pHCA) and zosteric acid in the supernatant was quantified by high performance liquid chromatography (HPLC) and compared to chemical standards. HPLC was done on a Thermo setup using a HS-F5 column and mobile phases: 5 mM ammonium formate pH 4.0 (A) and acetonitrile (B) at 1.5 mL min-1, using a gradient elution starting at 5% B. From 0.5 min after injection to 7 min, the fraction of B increased linearly from 5% to 60%, and between 9.5 min and 9.6 the fraction of B decreased back to 5%, and remaining there until 12 min. pHCA and zosteric acid were quantified by measuring absorbance at 277 nm.
To further test the range of substrates that can be sulfated, we used strains carrying plasmids expressing SULT1A1 from rat (Rattus norvegicus) and SULT1E1 from chicken (Gallus gallus domesticus) (Example 1) cloned into the expression vector pETDuet-1, and cysDNCQ from E. coli cloned into expression vector pRSFDuet-1 (Example 2). The plasmids were introduced into the E. coli expression strain BL21(DE3)pLysS as described previously, selecting for transformants with appropriate antibiotics, namely 34 μg mL^−1 chloramphenicol for pLysS, 100 μg mL^−1 ampicillin for pETDuet-1-based vectors, and 100 μg mL^−1 kanamycin for pRSFDuet-1-based vectors. […] A control strain without a sulfotransferase gene or cysDNCQ operon was also examined.
The strains were precultured in 2×YT medium with appropriate antibiotics. 10 μL of these precultures were used to inoculate M9 media with 1 mM IPTG and none or a single substrate for sulfation. After overnight growth at 37° C., 300 rpm the supernatants were withdrawn and examined by HPLC as described in Example 1. The compounds were detected by UV absorbance.

D. rerio SULT6B1 = assay: Percent reduction of compounds by E. coli KRX expressing distantly related sulfotransferases; assay type: cell-based, Danio rerio; details: 100 μM resveratrol, 20 μM kaempferol or 3-hydroxy-4-methoxycinnamic acid
Excerpt: The gene (sequence SEQ ID NO: 102) encoding SULT6B1 (sequence SEQ ID NO: 103) from Danio rerio was codon-optimized for E. coli and synthesized as in example 1.
(§2) The genes were cloned into the vector pETDuet-1 as described in Example 1, and the resulting vectors were transformed into E. coli KRX (obtained from Promega).

[4] = tested on: H. ochraceum DSM 14365 Hoch_6098; assay: as above; assay type: cell-based, Haliangium ochraceum DSM 14365; details: E. coli KRX expressing H. ochraceum DSM 14365 Hoch_6098; 100 μM resveratrol, 20 μM kaempferol or 50 μL 3-hydroxy-4-methoxycinnamic acid
Excerpt: The gene (sequence SEQ ID NO: 104) encoding Hoch_6098 (sequence SEQ ID NO: 105) from the bacterium Haliangium ochraceum DSM 14365 was codon-optimized for E. coli and synthesized as in example 1.
as §2

[5] = target: T3, SULT1A1 Canis lupus familiaris (Canis lupus familiaris, UniProt Q29476); assay: Percent conversion of substrates by E. coli expressing a sulfotransferase; assay type: cell-based; details: E. coli BL21(DE3)pLysS expressing SULT1A1 Canis lupus familiaris; M9; pHCA 100 μM, resveratrol 95 μM or kaempferol 87 μM; overnight 37° C.
T3 construct: 1, 3, 4, 5, and 6 were cloned amplified from liver tissue cDNA; expressed in transfected cells; host or cells: E. coli BL21(DE3)pLysS
T3 sequence (Q29476 whole entry): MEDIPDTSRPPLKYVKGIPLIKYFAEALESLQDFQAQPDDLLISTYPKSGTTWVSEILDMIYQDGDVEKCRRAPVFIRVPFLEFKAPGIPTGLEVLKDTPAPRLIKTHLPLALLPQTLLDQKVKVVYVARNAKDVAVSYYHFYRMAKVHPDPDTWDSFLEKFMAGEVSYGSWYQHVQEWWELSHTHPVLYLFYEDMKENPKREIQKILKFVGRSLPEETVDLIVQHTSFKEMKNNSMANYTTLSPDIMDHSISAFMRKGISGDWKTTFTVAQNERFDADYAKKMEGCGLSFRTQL
Experimental: as §1
(§3) Different sulfotransferases were examined for their substrate specificities against three substrates. We tested the sulfotransferases mentioned in example 1, as well as additional ones. The genes encoding these were cloned as described in example 1 using the primers shown in the table below from cDNA libraries of the respective organisms, except for the SULT1A1 from rat (Rattus norvegicus) codon-optimized for E. coli (described above). The resulting vectors were transformed into BL21(DE3)pLysS.
(§4) The resulting strains were grown in M9 medium containing either 100 μM pHCA, 95 μM resveratrol or 87 μM kaempferol. The cultures were grown overnight at 37° C., 300 rpm. The following day the supernatants were isolated and examined by HPLC as described in example 1.

SULT1A1 Equus caballus = assay: as above; assay type: cell-based; details: E. coli BL21(DE3)pLysS expressing SULT1A1 Equus caballus; M9; pHCA 100 μM, resveratrol 95 μM or kaempferol 87 μM; overnight 37° C.
Experimental: as §1, §3, §4

[6] = tested on: SULT1C1 Gallus gallus domesticus; assay: as above; assay type: cell-based; details: E. coli BL21(DE3)pLysS expressing SULT1C1 Gallus gallus domesticus; M9; pHCA 100 μM, resveratrol 95 μM or kaempferol 87 μM; overnight 37° C.
Experimental: as §1, §3, §4

SULT1A1 human = target: T4, SULT1A1 human (Homo sapiens, UniProt P50225, V223M); assay: as above; assay type: cell-based; details: E. coli BL21(DE3)pLysS expressing SULT1A1 human; M9; pHCA 100 μM, resveratrol 95 μM or kaempferol 87 μM; overnight 37° C.
T4 construct: expressed in transfected cells; host or cells: E. coli BL21(DE3)pLysS
T4 sequence (P50225 whole entry V223M): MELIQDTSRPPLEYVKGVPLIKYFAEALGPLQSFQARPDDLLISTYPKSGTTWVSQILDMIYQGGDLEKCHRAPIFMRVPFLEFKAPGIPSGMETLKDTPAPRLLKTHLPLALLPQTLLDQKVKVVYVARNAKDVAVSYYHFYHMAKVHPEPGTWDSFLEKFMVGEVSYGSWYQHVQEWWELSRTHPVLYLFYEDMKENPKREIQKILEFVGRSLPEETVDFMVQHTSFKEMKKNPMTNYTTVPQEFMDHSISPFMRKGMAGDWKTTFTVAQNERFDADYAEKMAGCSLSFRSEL
Experimental: as §1, §3, §4

[7] = tested on: SULT1E1 Gallus gallus domesticus; assay: as above; assay type: cell-based; details: E. coli BL21(DE3)pLysS expressing SULT1E1 Gallus gallus domesticus; M9; pHCA 100 μM, resveratrol 95 μM or kaempferol 87 μM; overnight 37° C.
Experimental: as §1, §3, §4

[8] = target: T5, SULT1A1 Rattus norvegicus (Rattus norvegicus, UniProt P17988); assay: as above; assay type: cell-based; details: M9, pHCA 100 μM, resveratrol 95 μM or kaempferol 87 μM, overnight 37° C.
T5 construct: 1, 3, 4, 5, and 6 were cloned amplified from liver tissue cDNA; expressed in transfected cells
T5 sequence (P17988 whole entry): as the sequence (P17988 whole entry) above
Experimental: as §1, §3, §4

[9] = tested on: SULT1A1 Sus scrofa domesticus; assay: as above; assay type: cell-based; details: E. coli BL21(DE3)pLysS expressing SULT1A1 Sus scrofa domesticus; M9; pHCA 100 μM, resveratrol 95 μM or kaempferol 87 μM; overnight 37° C.
Experimental: as §1, §3, §4

D. rerio SULT1ST1 = target: T6, D. rerio SULT1ST1 (Danio rerio, UniProt Q6PH37); assay: Percent reduction of compounds by E. coli KRX expressing distantly related sulfotransferases; assay type: cell-based; details: 100 μM resveratrol, 20 μM kaempferol or 3-hydroxy-4-methoxycinnamic acid
T6 construct: expressed in transfected cells; host or cells: E. coli KRX (Promega), vector pETDuet-1
T6 sequence (Q6PH37 1-299): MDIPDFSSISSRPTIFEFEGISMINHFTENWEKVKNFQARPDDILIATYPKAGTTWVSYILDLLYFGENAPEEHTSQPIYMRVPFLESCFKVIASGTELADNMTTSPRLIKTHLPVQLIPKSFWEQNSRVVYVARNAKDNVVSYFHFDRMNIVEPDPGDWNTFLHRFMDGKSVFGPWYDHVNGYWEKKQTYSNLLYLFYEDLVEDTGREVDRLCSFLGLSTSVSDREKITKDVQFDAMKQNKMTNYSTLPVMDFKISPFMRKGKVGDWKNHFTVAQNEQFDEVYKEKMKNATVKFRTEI

[10] = E. coli BL21(DE3)pLysS expressing SULT1A1 Rattus norvegicus (Codon-optimized for E. coli)
[11] = E. coli BL21(DE3)pLysS expressing SULT1A1 Rattus norvegicus

Compound	Percent reduction, SULT1A1 [1]	Percent reduction in concentration, SULT1E1 [2]	Percent reduction in concentration, SULT1A1 + CysDNCQ [3]	Percent reduction in concentration, SULT1A1 [3]	also measured
4-ethylguaiacol	50%	–	–	–	–
O=C(O)CCc1ccc(O)cc1 [3-(4-Hydroxyphenyl)propionic acid]	–	1%	7%	3%	–
COc1ccc(C=CC(=O)O)cc1O [3-Hydroxy-4-methoxycinnamic acid]	–	–	62%	51%	–
O=C(O)C(=O)Cc1ccc(O)cc1 [4-Hydroxyphenylpyruvic acid, 4-hydroxyphenylpyruvic acid]	–	100%	64%	47%	–
CC(=O)Nc1ccc(O)cc1 [4-acetamidophenol, reference compound]	–	10%	30%	24%	–
CCc1ccc(O)cc1 [4-ethylphenol]	100%	–	–	–	–
O=C(O)c1ccc(O)cc1 [4-hydroxybenzoic acid]	–	4%	6%	5%	–
Cc1cc(=O)oc2cc(O)ccc12 [4-methylbelliferone]	100%	–	–	–	–
O=[N+]([O-])c1ccc(O)cc1 [4-nitrophenol]	30%	–	–	–	–
C=Cc1ccc(O)cc1 [4-vinylphenol]	100%	–	–	–	–
O=c1cc(-c2ccc(O)cc2)oc2cc(O)cc(O)c12 [Apigenin]	–	98%	99%	41%	–
COc1cc(/C=C/C(=O)O)ccc1O [Ferulic acid, ferulic acid]	–	67%	100%	72%	–
O=c1cc(-c2ccc(O)c(O)c2)oc2cc(O)cc(O)c12 [Luteolin]	–	0%	37%	27%	–
O=C1C[C@@H](c2ccc(O)cc2)Oc2cc(O)cc(O)c21 [Naringenin]	60%	–	–	–	–
O=c1c(O)c(-c2ccc(O)c(O)c2)oc2cc(O)cc(O)c12 [Quercetin]	–	74%	81%	75%	–
COc1cc(/C=C/C(=O)O)cc(OC)c1O [Sinapic acid, sinapic acid]	31%	–	–	–	–
COc1cc(C(=O)O)ccc1O [Vanillic acid, vanillic acid]	–	0%	39%	33%	–
O=c1c(O)c(-c2ccc(O)c(O)c2)oc2cc(O)ccc12 [fisetin]	–	98%	100%	98%	–
O=c1c(O)c(-c2ccc(O)cc2)oc2cc(O)cc(O)c12 [kaempferol, Kaempferol]	–	–	–	–	Percent reduction (D. rerio SULT6B1): 44%; Percent reduction [4]: 100%; Percent conversion of the substrate [5]: 60%; Percent conversion of the substrate (SULT1A1 Equus caballus): 96%; Percent conversion of the substrate [6]: 80%; Percent conversion of the substrate (SULT1A1 human): 97%; Percent conversion of the substrate [7]: 47%; Percent conversion of the substrate [8, 10]: 38%; Percent conversion of the substrate [8, 11]: 95%; Percent conversion of the substrate [9]: 45%
Oc1ccc(C=Cc2cc(O)cc(O)c2)cc1 [resveratrol]	–	–	–	–	Percent reduction [4]: 7%; Percent conversion of the substrate [5]: 61%; Percent conversion of the substrate (SULT1A1 Equus caballus): 100%; Percent conversion of the substrate [6]: 100%; Percent conversion of the substrate (SULT1A1 human): 36%; Percent conversion of the substrate [7]: 100%; Percent conversion of the substrate [8, 10]: 58%; Percent conversion of the substrate [8, 11]: 93%; Percent conversion of the substrate [9]: 88%; Percent reduction (D. rerio SULT1ST1): 80%
